Measurements taken from patent US10010525B2, “Methods of inducing anesthesia” (The Regents of the University of California, priority 2012, dated 2018).
“Also recorded” adds a separate entry of the source.

Tests used:
[1] = tested on: 3-transmembrane (TM3) and 4-transmembrane (TM4) receptors; details: grouped by calculated molar solubility in unbuffered water at 25° C.; cited from earlier work
[2] = molecular target: T1, NMDA (NR1/NR2A) receptors (Rattus norvegicus, UniProt P35439+Q00959); assay: NMDA receptor two-electrode voltage clamp in oocytes at saturated drug concentration; assay type: cell-based; details: for NMDA % Direct Effect: drug response without receptor agonist; for NMDA % Direct Effect / NMDA % Agonist Effect: percent of control agonist peak, mean ±SEM, 5-6 oocytes, saturated drug; for NMDA % Agonist Effect: drug with glutamate and glycine; for NMDA Drug Response: drug+agonist versus control agonist peak; for NMDA receptor modulation (in words): saturating aqueous concentration
T1 construct: expressed in transfected cells; host or cells: Xenopus laevis oocytes (RNA injection, 1:1)
Description: (§1) GABAA (α1β2γ2s) or NMDA (NR1/NR2A) receptors were expressed in oocytes and studied using standard two-electrode voltage clamp techniques. Hydrocarbons from 14 different organic functional groups were studied at saturated concentrations, and compounds within each group differed only by the carbon number at the ω-position or within a saturated ring. An effect on GABAA or NMDA receptors was defined as a 10% or greater reversible current change from baseline that was statistically different from zero.
(§2) An ovary from tricaine-anesthetized Xenopus laevis frogs was surgically removed using a protocol approved by the Institutional Animal Care and Use Committee at the University of California, Davis. Following manual disruption of the ovarian lobule septae, the ovary was incubated in 0.2% Type I collagenase (Worthington Biochemical, Lakewood, N.J.) to defolliculate oocytes which were washed and stored in fresh and filtered modified Barth's solution composed of 88 mM NaCl, 1 mM KCl, 2.4 mM NaHCO3, 20 mM HEPES, 0.82 mM MgSO4, 0.33 mM Ca(NO3)2, 0.41 mM CaCl2, 5 mM sodium pyruvate, gentamycin, penicillin, streptomycin, and corrected to pH=7.4. All salts and antibiotics were A.C.S. grade (Fisher Scientific, Pittsburgh, Pa.).
(§3) Clones used were provided as a gift from Dr. R. A. Harris (University of Texas, Austin) and were sequenced and compared to references in the National Center for Biotechnology Information database to confirm the identity of each gene. GABAA receptors were expressed using clones for the human GABAA α1 and the rat GABAA β2 and γ2s subunits in pCIS-II vectors. […] In separate oocytes, glutamate receptors were expressed using rat NMDA NR1 clones in a pCDNA3 vector and rat NMDA NR2A clones in a Bluescript vector. RNA encoding each subunit was prepared using a commercial transcription kit (T7 mMessage mMachine, Ambion, Austin, Tex.) was mixed in a 1:1 ratio, and 1-10 ng of total RNA was injected into oocytes and studied 1-2 days later.
Briefly, baseline perfusion solutions were the same as for GABAA with the substitution of equimolar BaCl2 for calcium salts and the addition of 0.1 mM EGTA; this constituted barium frog Ringer's solution (BaFR). Agonist solutions for NMDA studies also contained 0.1 mM glutamate (E) and 0.01 mM glycine (G) to constitute a BaFREG solution.
The syringe pump and perfusion chamber apparatus as well as the clamp holding potential and baseline-agonist exposure protocols were identical to that described for the GABAA studies. The same test compounds, concentrations, and preparative methods were used in NMDA voltage clamp studies as in the GABAA voltage clamp studies (Table 2).
(§4) Modulating drug responses were calculated as the percent of the control (baseline) peak as follows: 100·ID/IB, where ID and IB were the peak currents measured during agonist+drug and agonist baseline perfusions, respectively. When present, direct receptor activation by a drug was similarly calculated as a percent of the agonist response. […] A lack of receptor response (cut-off) was defined as a<10% change from baseline current that was statistically indistinguishable from zero using a two-tailed Student t-test.

[3] = molecular target: T2, GABAA (α1β2γ2s) receptors (UniProt P14867+P18508+P63138); assay: GABAA receptor two-electrode voltage clamp in oocytes at saturated drug concentration; assay type: cell-based, human α1, rat β2 and γ2s; details: for GABAA % Direct Effect: drug response without receptor agonist; for GABAA % Direct Effect / GABAA % Agonist Effect: percent of control agonist peak, mean ±SEM, 5-6 oocytes, saturated drug; for GABAA % Agonist Effect: drug with γ-aminobutyric acid; for GABAA Drug Response: drug+agonist versus control agonist peak; for GABAA receptor modulation (in words): saturating aqueous concentration
T2 construct: expressed in transfected cells; host or cells: Xenopus laevis oocytes (intranuclear plasmid injection, α1:β2:γ2 = 1:1:10)
Description: as §1, §2, §3
Oocytes were studied in a 250 μL linear-flow perfusion chamber with solutions administered by syringe pump at 1.5 ml/min with gastight glass syringes and Teflon tubing. Oocyte GABAA currents were studied using standard two-electrode voltage clamping techniques at a holding potential of […] using a 250 μL channel linear-flow perfusion chamber with solutions administered by syringe pump at 1.5 mL/min.
After FR perfusion for 5 min, oocytes were exposed to 30 sec FR-GABA followed by another 5 min FR washout; this was repeated until stable GABAA-elicited peaks were obtained. Next, FR containing a saturated solution of the study drug (Table 2)—or for gaseous study compounds a vapor pressure equal to 90% of barometric pressure with balance oxygen—was used to perfuse the oocyte chamber for 2 min followed by perfusion with a FR-GABA solution containing the identical drug concentration for 30 sec.
as §4

T1 sequence (Q00959 23-1464, other chains not shown): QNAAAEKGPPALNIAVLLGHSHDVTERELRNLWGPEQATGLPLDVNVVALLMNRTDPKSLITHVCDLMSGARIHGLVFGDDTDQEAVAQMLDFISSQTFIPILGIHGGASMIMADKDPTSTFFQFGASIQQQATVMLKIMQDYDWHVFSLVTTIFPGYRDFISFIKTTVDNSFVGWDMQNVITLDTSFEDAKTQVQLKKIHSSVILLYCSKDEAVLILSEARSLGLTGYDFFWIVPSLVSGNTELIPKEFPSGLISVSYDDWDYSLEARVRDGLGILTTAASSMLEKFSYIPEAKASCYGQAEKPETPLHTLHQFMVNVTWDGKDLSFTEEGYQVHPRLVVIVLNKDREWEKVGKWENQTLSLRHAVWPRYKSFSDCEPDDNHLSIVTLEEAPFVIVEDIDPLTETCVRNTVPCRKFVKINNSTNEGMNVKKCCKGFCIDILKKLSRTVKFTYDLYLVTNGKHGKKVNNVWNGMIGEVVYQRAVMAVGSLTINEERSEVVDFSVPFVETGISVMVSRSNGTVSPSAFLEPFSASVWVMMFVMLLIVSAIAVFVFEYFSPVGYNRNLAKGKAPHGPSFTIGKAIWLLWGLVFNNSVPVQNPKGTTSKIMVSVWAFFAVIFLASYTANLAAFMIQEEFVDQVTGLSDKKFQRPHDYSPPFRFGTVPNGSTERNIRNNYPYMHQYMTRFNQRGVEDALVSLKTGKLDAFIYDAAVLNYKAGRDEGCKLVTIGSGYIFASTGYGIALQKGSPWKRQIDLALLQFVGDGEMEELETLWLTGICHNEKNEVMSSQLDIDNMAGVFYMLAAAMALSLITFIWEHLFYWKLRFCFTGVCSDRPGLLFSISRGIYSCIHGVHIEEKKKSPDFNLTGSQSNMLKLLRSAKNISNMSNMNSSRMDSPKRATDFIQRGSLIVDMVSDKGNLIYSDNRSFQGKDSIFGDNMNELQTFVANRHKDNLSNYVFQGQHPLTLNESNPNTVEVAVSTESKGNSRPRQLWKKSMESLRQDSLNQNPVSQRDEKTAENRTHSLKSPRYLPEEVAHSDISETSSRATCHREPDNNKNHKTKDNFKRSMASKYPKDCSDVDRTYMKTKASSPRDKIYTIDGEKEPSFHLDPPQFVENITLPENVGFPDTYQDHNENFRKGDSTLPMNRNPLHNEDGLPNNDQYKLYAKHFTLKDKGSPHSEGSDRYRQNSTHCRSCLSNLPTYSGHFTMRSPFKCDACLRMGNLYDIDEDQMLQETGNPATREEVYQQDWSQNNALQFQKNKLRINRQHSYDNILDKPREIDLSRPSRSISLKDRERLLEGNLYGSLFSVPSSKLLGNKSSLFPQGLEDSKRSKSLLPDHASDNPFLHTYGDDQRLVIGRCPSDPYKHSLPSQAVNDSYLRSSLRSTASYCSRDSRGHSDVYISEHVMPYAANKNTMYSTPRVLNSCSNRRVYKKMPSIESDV
T2 sequence (P14867 28-456): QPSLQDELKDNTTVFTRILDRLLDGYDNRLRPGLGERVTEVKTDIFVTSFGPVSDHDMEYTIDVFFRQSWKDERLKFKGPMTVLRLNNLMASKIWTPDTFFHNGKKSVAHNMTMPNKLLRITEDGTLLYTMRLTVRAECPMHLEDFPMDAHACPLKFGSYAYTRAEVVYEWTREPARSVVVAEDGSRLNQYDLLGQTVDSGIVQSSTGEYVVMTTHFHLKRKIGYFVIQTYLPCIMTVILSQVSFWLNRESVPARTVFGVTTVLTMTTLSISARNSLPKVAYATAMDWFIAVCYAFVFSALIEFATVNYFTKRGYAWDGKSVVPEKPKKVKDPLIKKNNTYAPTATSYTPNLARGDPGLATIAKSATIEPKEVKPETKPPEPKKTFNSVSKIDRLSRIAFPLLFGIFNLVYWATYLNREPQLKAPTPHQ
T2 sequence (P63138 25-474 limits assumed): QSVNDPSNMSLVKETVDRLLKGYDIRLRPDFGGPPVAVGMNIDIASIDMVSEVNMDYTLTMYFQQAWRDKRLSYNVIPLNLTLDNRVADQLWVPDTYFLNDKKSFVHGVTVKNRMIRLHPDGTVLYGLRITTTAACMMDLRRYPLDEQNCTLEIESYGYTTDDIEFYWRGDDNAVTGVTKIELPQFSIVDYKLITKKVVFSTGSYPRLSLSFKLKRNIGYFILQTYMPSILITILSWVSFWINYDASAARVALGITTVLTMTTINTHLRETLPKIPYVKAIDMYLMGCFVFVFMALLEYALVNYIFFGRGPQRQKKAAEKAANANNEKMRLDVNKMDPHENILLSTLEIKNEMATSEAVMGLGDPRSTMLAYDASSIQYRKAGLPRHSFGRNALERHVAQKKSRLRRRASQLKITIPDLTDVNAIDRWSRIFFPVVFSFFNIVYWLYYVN
T2 sequence (P18508 39-466): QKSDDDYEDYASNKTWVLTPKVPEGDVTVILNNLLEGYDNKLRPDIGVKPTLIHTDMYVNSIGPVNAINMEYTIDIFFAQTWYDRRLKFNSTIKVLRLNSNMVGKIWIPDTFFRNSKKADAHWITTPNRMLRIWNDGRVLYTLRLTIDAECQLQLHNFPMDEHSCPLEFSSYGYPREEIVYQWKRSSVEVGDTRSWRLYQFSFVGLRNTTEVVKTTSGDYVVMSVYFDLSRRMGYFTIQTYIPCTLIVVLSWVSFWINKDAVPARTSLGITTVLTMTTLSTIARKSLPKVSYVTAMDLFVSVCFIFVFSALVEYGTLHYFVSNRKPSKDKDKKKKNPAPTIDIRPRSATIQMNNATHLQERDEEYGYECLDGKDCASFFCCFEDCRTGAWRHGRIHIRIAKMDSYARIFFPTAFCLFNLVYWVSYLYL

| SMILES | ion channel modulation, TM3 versus TM4 receptors (FIG. 2) [1] | NMDA % Direct Effect [2] | NMDA % Agonist Effect [2] [%] | GABAA % Direct Effect [3] | GABAA % Agonist Effect [3] [%] | GABAA Drug Response [3] | NMDA Drug Response [2] | NMDA receptor modulation (in words) [2] | NMDA receptor modulation (in words) ([2]; listed as n-butane) | GABAA receptor modulation (in words) [3] |
| --- | --- | --- | --- | --- | --- | --- | --- | --- | --- | --- |
| FC1(F)C(F)(F)C(F)(Cl)C1(F)Cl (stereo not drawn) [1,2-dichlorohexafluorocyclobutane] | modulate 4-transmembrane receptors (TM4) or neither receptor type | – | – | – | – | – | – | – | – | – |
| CCCCCCCCC(C)=O [2-decanone] | – | none | 81 ± 1 | none | 476 ± 52 | + (potentiation (+) for drug+agonist responses greater than the control agonist peak) | – | – | – | – |
| CCCCCCCCCCC(C)=O [2-dodecanone] | – | none | 97 ± 3 | none | 325 ± 30 | + (potentiation (+) for drug+agonist responses greater than the control agonist peak) | 0 (no response (0) for drug+agonist responses that differ by <10% from the control agonist peak) | – | – | – |
| CCCCCCCCCC(C)=O [2-undecanone] | – | none | 98 ± 2 | none | 230 ± 16 | + (potentiation (+) for drug+agonist responses greater than the control agonist peak) | 0 (no response (0) for drug+agonist responses that differ by <10% from the control agonist peak) | – | – | – |
| CCCC [butane] | – | none | 7 ± 2 | none | 623 ± 68 | + (potentiation (+) for drug+agonist responses greater than the control agonist peak) | – | negatively modulates | almost completely inhibited NMDA receptor currents | positively modulate |
| C1CCCCC1 [cyclohexane] | – | none | 101 ± 2 | none | 421 ± 17 | + (potentiation (+) for drug+agonist responses greater than the control agonist peak) | 0 (no response (0) for drug+agonist responses that differ by <10% from the control agonist peak) | – | – | – |
| C1CCCC1 [cyclopentane] | – | none | 83 ± 2 | 3 ± 2% | 196 ± 11 | + (potentiation (+) for drug+agonist responses greater than the control agonist peak) | – | – | – | – |
| C1CC1 [cyclopropane] | modulate both 3-transmembrane (TM3) and TM4 receptors | – | – | – | – | – | – | – | – | – |
| CCCCCCCCCC=O [decanal] | – | none | 97 ± 3 | none | 159 ± 5 | + (potentiation (+) for drug+agonist responses greater than the control agonist peak) | 0 (no response (0) for drug+agonist responses that differ by <10% from the control agonist peak) | – | – | – |
| FC(F)OC(F)C(F)(F)F (stereo not drawn) [desflurane] | modulate both 3-transmembrane (TM3) and TM4 receptors | – | – | – | – | – | – | – | – | – |
| CN1C(=O)CN=C(c2ccccc2)c2cc(Cl)ccc21 [diazepam] | modulate 4-transmembrane receptors (TM4) or neither receptor type | – | – | – | – | – | – | – | – | – |
| CCCCCCOCCCCCC [dihexylether] | – | none | 112 ± 4 | none | 113 ± 1 | + (potentiation (+) for drug+agonist responses greater than the control agonist peak) | 0 (no response (0) for drug+agonist responses that differ by <10% from the control agonist peak) | – | – | – |
| CCCCCOCCCCC [dipentylether] | – | none | 97 ± 2 | none | 211 ± 9 | + (potentiation (+) for drug+agonist responses greater than the control agonist peak) | 0 (no response (0) for drug+agonist responses that differ by <10% from the control agonist peak) | – | – | – |
| CCCCCCCCCC(=O)OCC [ethyl decanoate] | – | none | 98 ± 1 | none | 137 ± 2 | + (potentiation (+) for drug+agonist responses greater than the control agonist peak) | 0 (no response (0) for drug+agonist responses that differ by <10% from the control agonist peak) | – | – | – |
| CCCCCCC(=O)OCC [ethyl heptanoate] | – | none | 78 ± 3 | none | 370 ± 34 | + (potentiation (+) for drug+agonist responses greater than the control agonist peak) | – | – | – | – |
| CCCCCCCC(=O)OCC [ethyl octanoate] | – | none | 90 ± 1 | none | 285 ± 18 | + (potentiation (+) for drug+agonist responses greater than the control agonist peak) | – | – | – | – |
| CCCCCC [hexane] | – | none | 100 ± 1 | none | 129 ± 5 | + (potentiation (+) for drug+agonist responses greater than the control agonist peak) | 0 (no response (0) for drug+agonist responses that differ by <10% from the control agonist peak) | – | – | – |
| CCCCCCCCC=O [nonanal] | – | none | 104 ± 2 | none | 219 ± 29 | + (potentiation (+) for drug+agonist responses greater than the control agonist peak) | 0 (no response (0) for drug+agonist responses that differ by <10% from the control agonist peak) | – | – | – |
| CCCCCCCC=O [octanal] | – | none | 71 ± 3 | 6 ± 3% | 357 ± 20 | + (potentiation (+) for drug+agonist responses greater than the control agonist peak) | – | – | – | – |
| CCCCC [pentane] | – | none | 94 ± 3 | none | 321 ± 10 | + (potentiation (+) for drug+agonist responses greater than the control agonist peak) | 0 (no response (0) for drug+agonist responses that differ by <10% from the control agonist peak) | does not modulate NMDA receptors; also recorded: no effect | – | positively modulate |
| CCCCCCCCCCC=O [undecanal] | – | none | 97 ± 8 | none | 299 ± 29 | + (potentiation (+) for drug+agonist responses greater than the control agonist peak) | 0 (no response (0) for drug+agonist responses that differ by <10% from the control agonist peak) | – | – | – |
